Laboratory results reported in US20160279076A1, “METHODS FOR IMPROVEMENT OF VISUAL FUNCTION AND COMPOSITIONS USED THEREIN” (priority 2015, published 2016).

Tested on: ARPE-19 cells
Assay: Gene expression analysis in ARPE-19 cells after lutein pretreatment and UV exposure
Assay type: cell-based, human
Conditions: for Down-regulated genes expression / Up-regulated genes expression: 10 μM lutein 24 hour pretreatment
Experimental: Retinal pigment epithelial (RPE) cells play a key protective role by shielding retina from damaging UV rays and are used as a model to study the effect of macular carotenoids. In this study, a human RPE cell line (ARPE-19 cells were acquired from American Type Culture Collection (ATCC)) was either treated with placebo or treated with macular carotenoids alone or in combination for 24 hours prior to UV exposure. Cells were maintained for another 18 hours, then harvested for gene expressions. In another study, acetylcholinesterase and catalase activities in the presence of macular carotenoids were tested.
According to Study 1, Cell line ARPE-19 was subjected to 24 hour pretreatment with 10 μM lutein, followed by exposure to UV radiation of 1 J/m^2 for 7 seconds.
According to Study 2, Cell line ARPE-19 was subjected to 24 hour pretreatment with 10 μM lutein, followed by exposure to UV radiation of 300 J/m^2 for 10 minutes.
Gene expression analysis was carried out in response to UV exposure and macular carotenoid administration.

Structure (SMILES): CC1=C[C@H](O)CC(C)(C)[C@H]1/C=C/C(C)=C/C=C/C(C)=C/C=C/C=C(C)/C=C/C=C(C)/C=C/C1=C(C)C[C@@H](O)CC1(C)C [Lutein, lutein]
- Down-regulated genes expression (with UV exposure): inhibits inflammation
- Up-regulated genes expression (with UV exposure): inhibits oncogenesis and growth factor tumor suppressors
- Down-regulated genes expression (without UV exposure): inhibits DNA damage and inflammation
- Up-regulated genes expression (without UV exposure): inhibits oncogenesis and inflammation
- Gene expression analysis, overall role for vision health (ARPE-19 cells, UV irradiation): plays a protective role for vision health
